{"source": "patent US20140363489A1", "about": "“TREATMENT OF EYE DISEASE” (Panacea Pharmaceuticals, priority 2013, published 2014)", "molecules": {"B1": {"name": "CNTF: Ciliary neurotrophic factor, neurotrophic factor delivered into eye (protein, UniProt P26441 1-200, looked up)", "Ciliary neurotrophic factor": "MAFTEHSPLTPHRRDLCSRSIWLARKIRSDLTALTESYVKHQGLNKNINLDSADGMPVASTDQWSELTEAERLQENLQAYRTFHVLLARLLEDQQVHFTPTEGDFHQAIHTLLLQVAAFAYQIEELMILLEYKIPRNEADGMPINVGDGGLFEKKLWGLKVLQELSQWTVRSIHDLRFISSHQTGIPARGSHYIANNKKM"}}, "key": {"[1]": {"test_system": "retinal degeneration", "details": "RSC rats; cited from earlier work"}, "[2]": {"test_system": "retinal degeneration", "details": "RCS, P23H, S334ter, photo stress rats, rd mice, CAR model rats (Ohguro, 2008); cited from earlier work"}, "[3]": {"test_system": "photoreceptor neurons of rd1 mouse retina", "assay": "ex vivo rd1 mouse retina culture, photoreceptor rows and nucleus numbers", "format": "cell-based", "details": "10 μM", "description": "The effect of PAN-811 was examined in an ex vivo model, in which retinas were isolated from rd1 mouse at PN7 and treated in culture with 0, 2 and 10 μM PAN-811 for 21 days (equal to PN28).\nThe one model of RP study is rd1 mouse in which, like in RP patient, the gene for β-phospodiesterase is spontaneously mutated in rod photoreceptor neurons results in the rod cell loss. The apoptosis starts at postnatal day (PN) 9 to 10, peaks at PN13 and is completed at PN21.\nTo test the effect PAN-811, retinas from rd1 (C3H strain) mice at PN7 were cultured in the presence of 0 (n=6), 2 (n=6) and 10 (n=7) μM PAN-811. After 21 days in vitro (equal to PN28), the hematoxylin/eosin stained retinal section was analyzed at five positions; the very center of the retina plus at two positions on each side of this, approximately 200 μm apart, and referred to as mid-periphery and periphery, respectively. The retina from the rd1 mouse commonly carried only a thin layer of photoreceptor neurons (FIG. 1A—photo on left). […] Quantitatively, a control group has two layers of photoreceptor neurons at center, mid-periphery or pheriphery (FIG. 1B). PAN-811 at a concentration of 10 μM, but not 2 μM, increased the row numbers from 2 to 3 (P<0.05) at all measured areas.\nNucleus numbers for photoreceptor neurons that locate in center (n=7), mid-periphery (n=6) and periphery (n=6) were counted on photos (within 35 mm length of rode photoreceptor layer after magnification) by ImageJ software (NIH) and the data were expressed as percentage of untreated control. […]\nTwenty retinas from 10 rd1 mice (C3H strain) were dissected out at PN7 and mounted flat on HA mixed cellulose, 0.45 μm membranes fitted to culture dish inserts (Millipore Corp). […] The sections were analyzed and photographed under a microscope, blindly with respect to origin The rows of photoreceptors in the outer nuclear layer of the retina were quantitatively evaluated in a total of at least 30 sections for each preparation (4 slides from each preparation and 8 sections from each slide). […]"}, "[4]": {"test_system": "ischemic stroke", "details": "ischemic stroke model (Jiang et al., 2006); cited from earlier work"}, "[5]": {"details": "cited from earlier work"}}, "note": "“Also recorded” adds a separate entry of the source. Where two headings read alike, the source gives them in different places.", "data": [{"molecule": "COC(=O)C1=C(C#N)NC(C)=C(C(=O)OC(C)C)C1c1cccc([N+](=O)[O-])c1", "note": "(stereo not shown) [Nilvadipine]", "values": [{"measurement": "effect against retinal degeneration", "setting": "[1]", "value": "beneficial effect against retinal degeneration"}, {"measurement": "effect against retinal degeneration", "setting": "[2]", "value": "beneficial effects against retinal degeneration in all models tested"}]}, {"molecule": "NC(=S)N/N=C/c1ncccc1N", "note": "[PAN-811, 3-aminopyridine-2-carboxaldehyde thiosemicarbazone]", "values": [{"measurement": "increase of nucleus numbers of photoreceptor neurons vs untreated control", "setting": "[3]; 21 days in vitro, center, mid-periphery and periphery, P<0.01", "value": "about 50%"}, {"measurement": "row numbers of photoreceptor neurons", "setting": "[3]; 21 days in vitro, center, mid-periphery, periphery, control 2 rows, P<0.05", "value": 3}, {"measurement": "loss of photoreceptor neurons / thickness of photoreceptor layer", "setting": "[3]; retinas from rd1 mouse at PN7, 21 days in culture", "value": "prevents loss of photoreceptor neurons; also recorded: prevented the loss of photoreceptor neurons; also recorded: thicker"}, {"measurement": "neuroprotective activity", "setting": "[4]", "value": "potent neuroprotective activity"}]}, {"molecule": "B1", "values": [{"measurement": "half-life in vivo", "setting": "[5]", "value": "2 to 6.67", "unit": "h"}]}]}
